In ChEMBL document CHEMBL1201862, “PubChem BioAssay data set” (2004):
Several values for one entry are separate records, joined by “and”; a condition that tells them apart may be missing. Equal entries are not always repeated.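 Grown in 96-well plates, cells were treated for 48 hours with each compound at five concentrations. Insufficient inhibition: endpoint recorded as highest concentration tested. GI50 marks 50% less growth.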 Activity calls are given as the source filed them. Rule as the data show it: active = GI50 up to about 1.1 µM and inactive = higher.

Experiments:
Test in all cases: inhibition of tumour cell growth, NCI panel, 48 h
[1] = test system: SNB-75
[2] = test system: BT-549
[3] = test system: OVCAR-4
[4] = test system: RXF 393
[5] = test system: SF-539
[6] = test system: HOP-92
[7] = test system: SK-MEL-2
[8] = test system: PC-3
[9] = test system: MDA-MB-435
[10] = test system: SW-620
[11] = test system: MDA-MB-231
[12] = test system: HCT-15
[13] = test system: KM12
[14] = test system: OVCAR-8
[15] = test system: HT-29
[16] = test system: UO-31
[17] = test system: HCT-116
[18] = test system: LOX IMVI
[19] = test system: RPMI-8226
[20] = test system: HL-60
[21] = test system: SK-OV-3
[22] = test system: M14
[23] = test system: UACC-62
[24] = test system: SN12C
[25] = test system: NCI-H23
[26] = test system: SK-MEL-28
[27] = test system: COLO 205
[28] = test system: TK-10
[29] = test system: EKVX
[30] = test system: NCI/ADR-RES
[31] = test system: NCI-H522
[32] = test system: HOP-62
[33] = test system: OVCAR-5
[34] = test system: CAKI-1
[35] = test system: U-251
[36] = test system: K562
[37] = test system: NCI-H460
[38] = test system: CCRF-CEM
[39] = test system: IGROV-1
[40] = test system: SNB-19
[41] = test system: Hs-578T
[42] = test system: A498
[43] = test system: SR
[44] = test system: NCI-H226
[45] = test system: A549
[46] = test system: MCF7
[47] = test system: SF-268
[48] = test system: UACC-257
[49] = test system: DU-145
[50] = test system: MDA-N
[51] = test system: Malme-3M
[52] = test system: ACHN
[53] = test system: HCC 2998
[54] = test system: OVCAR-3
[55] = test system: SK-MEL-5
[56] = test system: 786-0
[57] = test system: SF-295
[58] = test system: T47D
[59] = test system: MOLT-4

CCCCCCCCCCCCC(O)[C@H]1CC[C@H](C(O)CCCCCC(=O)CCCCC2CC(C(C)=O)C(=O)O2)O1 (some centres not stated)
GI50 [1]: 10.5 µM (inactive)
GI50 [2]: 15 µM (inactive)
GI50 [3]: 4.09 µM (inactive)
GI50 [4]: 7.6 µM (inactive)
GI50 [5]: 14.1 µM (inactive)
GI50 [6]: 10.4 µM (inactive)
GI50 [7]: 13.6 µM (inactive)
GI50 [8]: 4.95 µM (inactive)
GI50 [9]: 8.34 µM (inactive)
GI50 [10]: 11.4 µM (inactive)
GI50 [11]: 11 µM (inactive)
GI50 [12]: 8.18 µM
GI50 [13]: 8.77 µM (inactive)
GI50 [14]: 8.97 µM (inactive)
GI50 [15]: 6.73 µM (inactive)
GI50 [16]: 8.97 µM (inactive)
GI50 [17]: 1.02 µM (active)
GI50 [18]: 2.08 µM (inactive)
GI50 [19]: 1.65 µM (inactive)
GI50 [20]: 2.12 µM (inactive)
GI50 [21]: 9.68 µM (inactive)
GI50 [22]: 8.77 µM (inactive)
GI50 [23]: 4.67 µM (inactive)
GI50 [24]: 7.24 µM (inactive)
GI50 [25]: 2.22 µM (inactive)
GI50 [26]: 16.9 µM (inactive)
GI50 [27]: 6.3 µM (inactive)
GI50 [28]: 14.1 µM (inactive)
GI50 [29]: 5.69 µM (inactive)
GI50 [30]: 3.44 µM (inactive)
GI50 [31]: 3.94 µM (inactive)
GI50 [32]: 4.98 µM (inactive)
GI50 [33]: 18.4 µM (inactive)
GI50 [34]: 17.1 µM (inactive)
GI50 [35]: 8.87 µM (inactive)
GI50 [36]: 1.33 µM (inactive)
GI50 [37]: 3.03 µM (inactive)
GI50 [38]: 3.17 µM (inactive)
GI50 [39]: 11 µM (inactive)
GI50 [40]: 9.4 µM (inactive)
GI50 [41]: 15.4 µM (inactive)
GI50 [42]: 13.3 µM (inactive)
GI50 [43]: 0.0264 µM (active)
GI50 [44]: 17.6 µM (inactive)
GI50 [45]: 3.7 µM (inactive)
GI50 [46]: 3.47 µM (inactive)
GI50 [47]: 12.3 µM (inactive)
GI50 [48]: 1.16 µM (inactive)
GI50 [49]: > 43.6 µM (inactive)
GI50 [50]: 3.68 µM (inactive)
GI50 [51]: 11.5 µM (inactive)
GI50 [52]: 7.29 µM (inactive)
GI50 [53]: 16.2 µM (inactive)
GI50 [54]: 4.25 µM (inactive)
GI50 [55]: 0.802 µM (active)
GI50 [56]: 12.9 µM (inactive)
GI50 [57]: 4.95 µM (inactive)

CC(=O)OCC(OC(C)=O)C(OC(C)=O)C(/C=N\Nc1nc2ccccc2c(=O)[nH]1)OC(C)=O (configuration not stated)
GI50 [1]: > 100 µM (inactive)
GI50 [2]: > 100 µM (inactive)
GI50 [58]: > 100 µM (inactive)
GI50 [5]: > 100 µM (inactive)
GI50 [6]: > 100 µM (inactive)
GI50 [7]: > 100 µM (inactive)
GI50 [8]: > 100 µM (inactive)
GI50 [9]: > 100 µM (inactive)
GI50 [10]: > 100 µM (inactive)
GI50 [11]: > 100 µM (inactive)
GI50 [12]: > 100 µM
GI50 [13]: > 100 µM (inactive)
GI50 [14]: > 100 µM (inactive)
GI50 [15]: 26.2 µM (inactive) and 41.6 µM (inactive)
GI50 [16]: > 100 µM (inactive)
GI50 [17]: > 100 µM (inactive)
GI50 [18]: > 100 µM (inactive)
GI50 [19]: 91.8 µM (inactive)
GI50 [20]: 67.9 µM (inactive) and 85.9 µM (inactive)
GI50 [21]: > 100 µM (inactive)
GI50 [22]: > 100 µM (inactive)
GI50 [23]: > 100 µM (inactive)
GI50 [24]: > 100 µM (inactive)
GI50 [25]: > 100 µM (inactive)
GI50 [59]: 86.9 µM (inactive)
GI50 [26]: > 100 µM (inactive)
GI50 [27]: > 100 µM (inactive)
GI50 [28]: > 100 µM (inactive)
GI50 [29]: > 100 µM (inactive)
GI50 [30]: 24.9 µM (inactive) and 34.5 µM (inactive)
GI50 [32]: > 100 µM (inactive)
GI50 [33]: > 100 µM (inactive)
GI50 [34]: > 100 µM (inactive)
GI50 [35]: > 100 µM (inactive)
GI50 [36]: > 100 µM (inactive)
GI50 [37]: > 100 µM (inactive)
GI50 [38]: > 100 µM (inactive)
GI50 [39]: 26.1 µM (inactive) and 43.5 µM (inactive)
GI50 [40]: > 100 µM (inactive)
GI50 [42]: > 100 µM (inactive)
GI50 [43]: > 100 µM (inactive)
GI50 [44]: > 100 µM (inactive) and 89.9 µM (inactive)
GI50 [45]: > 100 µM (inactive)
GI50 [46]: > 100 µM (inactive)
GI50 [47]: > 100 µM (inactive)
GI50 [48]: > 100 µM (inactive)
GI50 [49]: > 100 µM (inactive)
GI50 [50]: > 100 µM (inactive)
GI50 [52]: > 100 µM (inactive)
GI50 [54]: > 100 µM (inactive)
GI50 [55]: > 100 µM (inactive)
GI50 [56]: > 100 µM (inactive)
GI50 [57]: > 100 µM (inactive)

Oc1ccc(-c2nc3cc(F)ccc3s2)cc1
GI50 [2]: 20 µM (inactive)
GI50 [58]: 5.22 µM (inactive)
GI50 [3]: 13.6 µM (inactive)
GI50 [4]: 27.4 µM (inactive)
GI50 [6]: 21.3 µM (inactive)
GI50 [7]: 19.1 µM (inactive)
GI50 [8]: 22.9 µM (inactive)
GI50 [9]: 20 µM (inactive)
GI50 [10]: 41.5 µM (inactive)
GI50 [12]: 23.6 µM
GI50 [13]: 20.5 µM (inactive)
GI50 [14]: 31.6 µM (inactive)
GI50 [15]: 23.3 µM (inactive)
GI50 [16]: 19.3 µM (inactive)
GI50 [17]: 17.5 µM (inactive)
GI50 [18]: 17.9 µM (inactive)
GI50 [19]: 24 µM (inactive)
GI50 [20]: 21.7 µM (inactive)
GI50 [21]: 25.7 µM (inactive)
GI50 [22]: 20 µM (inactive)
GI50 [23]: 17.5 µM (inactive)
GI50 [24]: 22.2 µM (inactive)
GI50 [25]: 32.3 µM (inactive)
GI50 [59]: 10.4 µM (inactive)
GI50 [26]: 21.6 µM (inactive)
GI50 [27]: 18.6 µM (inactive)
GI50 [28]: 34.1 µM (inactive)
GI50 [29]: 13.2 µM (inactive)
GI50 [30]: 20 µM (inactive)
GI50 [31]: 15.3 µM (inactive)
GI50 [32]: 24.7 µM (inactive)
GI50 [33]: 23.1 µM (inactive)
GI50 [34]: 23.7 µM (inactive)
GI50 [35]: 19.9 µM (inactive)
GI50 [36]: 22.6 µM (inactive)
GI50 [37]: 19.3 µM (inactive)
GI50 [38]: 43.8 µM (inactive)
GI50 [39]: 17.5 µM (inactive)
GI50 [40]: 36.7 µM (inactive)
GI50 [43]: 2.38 µM (inactive)
GI50 [44]: 17.3 µM (inactive)
GI50 [45]: 18.4 µM (inactive)
GI50 [46]: 1.14 µM (inactive)
GI50 [47]: 26.7 µM (inactive)
GI50 [48]: 27.4 µM (inactive)
GI50 [49]: 21.8 µM (inactive)
GI50 [50]: 28.4 µM (inactive)
GI50 [51]: 16.5 µM (inactive)
GI50 [52]: 20.3 µM (inactive)
GI50 [53]: 13.5 µM (inactive)
GI50 [54]: 19.2 µM (inactive)
GI50 [55]: 19.5 µM (inactive)
GI50 [56]: 28.6 µM (inactive)
GI50 [57]: 19.6 µM (inactive)

COC(=O)C(CCCCNC(=O)CNC(=O)OCc1ccccc1)NC(=O)C(CCCCNC(=O)CNC(=O)OCc1ccccc1)NC(=O)OCc1ccccc1 (configuration not stated)
GI50 [1]: 62.7 µM (inactive)
GI50 [2]: 20.7 µM (inactive)
GI50 [58]: 20.3 µM (inactive)
GI50 [3]: 29.2 µM (inactive)
GI50 [7]: 19 µM (inactive)
GI50 [8]: 96.2 µM (inactive)
GI50 [9]: 19.8 µM (inactive)
GI50 [10]: > 100 µM (inactive)
GI50 [11]: > 100 µM (inactive)
GI50 [12]: > 100 µM
GI50 [14]: 57.3 µM (inactive)
GI50 [15]: > 100 µM (inactive)
GI50 [16]: > 100 µM (inactive)
GI50 [17]: 84.7 µM (inactive)
GI50 [18]: 87.9 µM (inactive)
GI50 [19]: 20.4 µM (inactive)
GI50 [20]: 83.2 µM (inactive)
GI50 [22]: > 100 µM (inactive)
GI50 [23]: 40 µM (inactive)
GI50 [24]: > 100 µM (inactive)
GI50 [25]: > 100 µM (inactive)
GI50 [59]: 33.4 µM (inactive)
GI50 [26]: 53.8 µM (inactive)
GI50 [28]: > 100 µM (inactive)
GI50 [32]: > 100 µM (inactive)
GI50 [33]: > 100 µM (inactive)
GI50 [34]: > 100 µM (inactive)
GI50 [35]: 54 µM (inactive)
GI50 [36]: > 100 µM (inactive)
GI50 [37]: > 100 µM (inactive)
GI50 [38]: 42.8 µM (inactive)
GI50 [39]: > 10 µM (inactive)
GI50 [40]: 93.3 µM (inactive)
GI50 [42]: > 100 µM (inactive)
GI50 [43]: 41.8 µM (inactive)
GI50 [44]: > 100 µM (inactive)
GI50 [45]: > 100 µM (inactive)
GI50 [46]: 0.0805 µM (active)
GI50 [47]: 78 µM (inactive)
GI50 [48]: > 100 µM (inactive)
GI50 [49]: 98.4 µM (inactive)
GI50 [50]: 51.6 µM (inactive)
GI50 [51]: 46.2 µM (inactive)
GI50 [52]: > 100 µM (inactive)
GI50 [53]: 52.2 µM (inactive)
GI50 [54]: 53.3 µM (inactive)
GI50 [55]: 69.5 µM (inactive)
GI50 [56]: 25 µM (inactive)
